From patent publication US12427146B2, “C-terminal SRC kinase inhibitors” (INVENTISBIO CO., LTD., priority 2018, dated 2025)

Assays:
LCK protein = LCK protein (Homo sapiens (Human), UniProt P06239); experiment: LCK Inhibition Assay; format: biochemical
Method in brief: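 Recombinant LCK (0.50 nM) preincubated 30 min at RT with compound and FLPeptide4 (2 μM) in 50 mM HEPES pH 7.5, 10 mM MgCl2, Brij-35, DTT, BSA; reaction started with ATP (400 μM solution added), run 90 min at 25 °C, EDTA-stopped. Phospho/non-phospho peptide separated by mobility shift; IC50 from % inhibition of conversion, 11-point 1:3 series.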

CSK protein = CSK protein (Homo sapiens (Human), UniProt P41240); experiment: CSK Inhibition Assay; format: biochemical
Sequence of CSK protein (P41240 whole entry): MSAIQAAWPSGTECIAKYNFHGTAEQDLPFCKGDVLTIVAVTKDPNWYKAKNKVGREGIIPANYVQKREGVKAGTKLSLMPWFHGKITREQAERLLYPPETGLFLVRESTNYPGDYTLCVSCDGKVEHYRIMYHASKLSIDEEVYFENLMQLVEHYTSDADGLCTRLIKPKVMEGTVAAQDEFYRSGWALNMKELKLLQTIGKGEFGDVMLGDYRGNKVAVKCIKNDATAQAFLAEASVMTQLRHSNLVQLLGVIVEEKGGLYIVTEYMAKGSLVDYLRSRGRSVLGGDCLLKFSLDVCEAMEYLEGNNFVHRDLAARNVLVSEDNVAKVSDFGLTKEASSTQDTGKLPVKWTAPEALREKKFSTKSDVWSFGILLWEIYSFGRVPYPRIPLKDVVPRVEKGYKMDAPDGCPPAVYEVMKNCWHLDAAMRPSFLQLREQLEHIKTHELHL
Method in brief: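 Compounds, 11-point 1:3 dilutions in DMSO, were preincubated 30 min at RT with CSK and fluorescent peptide substrate, then the reaction was started with ATP (4 μM solution) and run 90 min at 25 °C before EDTA stop. Phospho-peptide conversion was read by mobility-shift separation (Caliper EZ Reader II) and converted to % inhibition for IC50.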

Sequence of LCK protein (P06239 whole entry): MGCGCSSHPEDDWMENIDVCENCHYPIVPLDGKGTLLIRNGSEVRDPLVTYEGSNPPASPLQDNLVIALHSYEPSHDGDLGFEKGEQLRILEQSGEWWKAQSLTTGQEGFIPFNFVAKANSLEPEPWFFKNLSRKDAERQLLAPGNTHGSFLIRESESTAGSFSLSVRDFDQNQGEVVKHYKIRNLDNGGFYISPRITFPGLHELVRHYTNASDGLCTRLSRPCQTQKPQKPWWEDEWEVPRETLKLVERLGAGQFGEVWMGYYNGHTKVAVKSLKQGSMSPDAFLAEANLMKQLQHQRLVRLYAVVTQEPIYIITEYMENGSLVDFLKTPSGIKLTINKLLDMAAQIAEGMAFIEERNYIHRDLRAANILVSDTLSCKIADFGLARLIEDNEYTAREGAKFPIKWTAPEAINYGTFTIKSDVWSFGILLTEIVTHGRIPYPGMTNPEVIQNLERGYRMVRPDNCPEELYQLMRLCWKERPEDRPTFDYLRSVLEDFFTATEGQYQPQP

In the case of CNc1nccc(-c2sc(-c3ccccc3)nc2-c2cccc(NS(=O)(=O)c3c(F)cccc3F)c2F)n1 [Compound 46], the IC50 (LCK protein) is reported as > 1000 nM and the IC50 (CSK protein) is reported as 27.3 nM.

CNc1nccc(-c2sc(-c3cncc(C(F)(F)F)c3)nc2-c2cccc(NS(=O)(=O)c3c(F)cccc3F)c2F)n1 [Compound 75] was tested, and the IC50 (LCK protein) was > 1000 nM and the IC50 (CSK protein) was 73.9 nM.

Nc1nccc(-c2sc(N3CCCC3=O)nc2-c2cccc(NS(=O)(=O)c3c(F)cccc3F)c2F)n1 [compound 112] was tested, and the IC50 (LCK protein) was > 1000 nM and the IC50 (CSK protein) was 30.3 nM.

For O=S(=O)(Nc1cccc(-c2nc(N3CCC3)sc2-c2ccnc(NC3CC3)n2)c1F)c1c(F)ccc(Cl)c1F [Compound 186], the IC50 (LCK protein) was > 1000 nM and the IC50 (CSK protein) was 4.1 nM.

For Cc1ccc(F)c(S(=O)(=O)Nc2cccc(-c3nc(-c4cncc(F)c4)sc3-c3ccnc(NCCO)n3)c2F)c1F [Compound 167], the IC50 (LCK protein) was > 1000 nM and the IC50 (CSK protein) was 15.9 nM.

O=S(=O)(Nc1cccc(-c2nc(-c3ccc(F)cn3)sc2-c2ccnc(NCCO)n2)c1F)c1c(Cl)cccc1Cl [Compound 133] was tested, and the IC50 (LCK protein) was > 1000 nM and the IC50 (CSK protein) was 17.8 nM.

In the case of CC(=O)N[C@@H](C)CNc1nccc(-c2sc(-c3ccccc3)nc2-c2cccc(NS(=O)(=O)c3c(F)cccc3F)c2F)n1 [Compound 41], the IC50 (LCK protein) is reported as > 1000 nM and the IC50 (CSK protein) is reported as 87.3 nM.

With CNc1nccc(-c2sc(N3CCOCC3)nc2-c2cccc(NS(=O)(=O)c3c(F)cccc3F)c2F)n1 [Compound 116] the IC50 (LCK protein) was 100 to 1000 nM and the IC50 (CSK protein) was 13.5 nM.

For Cc1ccc(-c2nc(-c3cccc(NS(=O)(=O)c4c(F)cccc4F)c3F)c(-c3ccnc(N)n3)s2)nn1 [Compound 13], the IC50 (LCK protein) was > 1000 nM and the IC50 (CSK protein) was 51 nM.

CNc1nccc(-c2sc(-c3cncc(F)c3)nc2-c2cccc(NS(=O)(=O)c3c(Cl)cccc3Cl)c2F)n1 [Compound 127] was tested, and the IC50 (LCK protein) was > 1000 nM and the IC50 (CSK protein) was 5.8 nM.

With CNc1nccc(-c2sc(-c3ccc(F)cn3)nc2-c2cccc(NS(=O)(=O)c3c(F)ccc(C)c3F)c2F)n1 [Compound 55] the IC50 (LCK protein) was > 1000 nM and the IC50 (CSK protein) was 30.3 nM.
